Assay results: ChEMBL document CHEMBL4130615, “Evaluation of Diarylheptanoid-Terpene Adduct Enantiomers from Alpinia officinarum for Neuroprotective Activities” (J Nat Prod, 2018)
Calls of active or inactive are those of the source. No cut-off for these calls is given here.

Key:
[1] = tested on: Cortical neurone; experiment: Neuroprotective activity against MPP+-induced cell death in Sprague-Dawley rat cortical neurons assessed as increase in cell viability at 4 to 32 uM pretreated for 12 hrs followed by MPP+ challenge measured after 20 hrs by MTT assay; assay type: functional, cell-based
[2] = tested on: Cortical neurone; experiment: Neuroprotective activity against MPP+-induced cell death in Sprague-Dawley rat cortical neurons assessed as increase in cell viability at 16 uM pretreated for 12 hrs followed by MPP+ challenge measured after 20 hrs by MTT assay; assay type: functional, cell-based

SMILES | Activity [1] | Activity [2]
COc1cc(CC[C@@H]2CC=C(CCC=C(C)C)C[C@H]2C(=O)CCc2ccccc2)ccc1O | inactive | –
COc1cc(CC/C=C/C(=O)CCc2ccccc2)ccc1O | inactive | –
C=CC(=C)CCC=C(C)C | inactive | –
COc1cc(CC[C@H]2CC=C(CCC=C(C)C)C[C@@H]2C(=O)CCc2ccccc2)ccc1O | – | Active
